{"source": "patent US6432883B1", "about": "“Methods of treating plants with glycolic acid” (Emerald BioAgriculture Corporation, priority 2000, dated 2002)", "key": {"Sclerotinia minor [1]": {"test_system": "Sclerotinia minor", "experiment": "Colony radius of plant pathogen on amended potato dextrose agar", "type": "cell-based", "settings": "in PDA, 4 days, about 23° C., FIG. 5", "text": "Sclerotinia minor culture SaM-18 was received from Krishna Subbarro, Ph.D., Univ. Calif., Davis. Potato dextrose agar (PDA) powder was purchased from Baltimore Biological Laboratory, Inc. (BBL), ammonium glycolate and glycolic acid from DuPont Specialty Chemicals and BreakThru® surfactant from Goldschmidt Chemical Corp.\nPDA was made, poured into sterile disposable petri dishes (100×15 mm) and inoculated with S. minor sclerotia to start new cultures on day zero. These cultures had reached an appropriate stage of maturation for use for use in the test after two weeks of growth. Multiple 1 liter containers of PDA were made and autoclaved on day 14. These PDA containers remained in the circulating water bath at 46° C. until the solutions were ready for addition (about 2 hrs.). The glycolic acid-containing compositions were added to the 46° C. PDA through a syringe-tip 0.2 μm-pore sterile filtration disc in a positive laminar-flow sterile hood and thoroughly mixed before returning to the 46° C. water bath to await pouring. Stacks of 22 dishes were poured for each medium type and allowed to solidify and cool overnight.\nOn day 15, soft, white to gray, sclerotial clumps of hyphae were picked from the culture dishes with heat sterilized forceps and one clump was transferred to the center of each test medium dish. Twenty dishes of each inoculated medium were stacked and replaced into the plastic sleeves they were originally packaged in for incubation at room temperature (about 23° C.). After 4 days of growth, some of the cultures had just reached the edges of the medium. The radius of each colony was measure in mm.\nTreatments were water controls, 0.05% surfactant controls, 5, 15, 50, 75 and 100 ppm of glycolic acid (F12) and 5, 15, 50, 100 and 750 ppm of ammonia-neutralized glycolic acid (F18; i.e., ammonium glycolate)."}, "Sclerotinia minor [2]": {"test_system": "Sclerotinia minor", "experiment": "Cabbage pathogen stress: disease severity rating, fresh and dry weights", "type": "in vivo", "settings": "for Dry Weight / Fresh Weight: cabbage under pathogen stress; for Disease Severity Rating: cabbage, 1-9 rating scale", "description": "Market Prize, F1 cabbage seed, lot 88955, was purchased from Harris Seeds, Inc., Rochester, N.Y. These were grown 8 plants per 1 gallon pot, 1 pot per experimental unit and 3 experimental units per each of 3 replications. The plants were spray-treated first at 4 true leaves and again 14 days later with 8 ml per pot. The pathogen stress (Sclerotinia minor hyphal fragments and sclerotia, cultured on potato dextrose agar) was applied to the plant stems at the soil/stem interface at 4 days following the second treatment application.\nTreatments consisted of non-inoculated and inoculated groups of non-treated (NTC), water and 0.05% surfactant-blank (SB) controls and 1, 5, 10, 25, 37.5 and 75 ppm of glycolic acid.\nDisease assessment was made just prior to harvest by means of a 1-9 based rating scale. Each plant was harvested at the soil line for yield fresh and dry weights. The results in Table 2 below show the data for each treatment and the rating scale definitions."}, "Sclerotinia minor [3]": {"test_system": "Sclerotinia minor", "experiment": "Lettuce pathogen stress: spray treatment, then stem inoculation, disease severity rating", "type": "in vivo", "settings": "for Disease Severity Rating: lettuce, 1-9 rating scale", "description": "Waldmann's MTO dark green Grand Rapids leaf lettuce seed, lot#15529, was purchased from Johnny's Selected Seeds, Albion, Me., and grown 8 plants per 1 gallon pot, 1 pot per experimental unit and 3 experimental units per each of 4 replications. The plants were spray-treated first following “row closure” and again 14 days later with 8 ml per pot. The pathogen stress (Sclerotinia minor hyphal fragments and sclerotia, cultured on potato dextrose agar) was applied to the plant stems at the soil/stem interface at 14 days following the second treatment application.\nTreatments consisted of non-inoculated and inoculated groups of non-treated (NTC), water and 0.05% surfactant-blank (SB) controls and 15 and 60 ppm of glycolic acid.\nDisease assessment was made just prior to harvest by means of a 1-9 based rating scale. Extensive decomposition of the controls made accurate yield fresh and dry weights impossible. The results in Table 1 below show the data for each treatment and the rating scale definitions."}, "cabbage [4]": {"test_system": "cabbage", "experiment": "Cabbage cold shock and heat treatment: fresh and dry weights", "type": "in vivo", "set-up": "Avg. Fresh Weights ± SD / Avg. Dry Weights ± SD: unit not given here", "text": "Seeds of Heads Up cabbage were obtained from Harris Seeds, Rochester, N.Y. and grown in 7″×5¼″×2¼″ (17.78 cm×13.34×5.72 cm) Kord inserts (Park Seeds, Greenwood, S.C.) containing Bacto potting soil (Michigan Peat Company, Houston, Tex.). After plants had germinated, cabbage seedlings were thinned to six plants per insert. Inserts were kept in 12″×8¾″ (30.48 cm×22.23 cm) perma nest trays (Park Seed) with two inserts per tray. Each treatment consisted of three replicate trays containing a total of eighteen cabbage plants. After 12 days, some of the plant were sprayed with Glypure® at 25 ppm, 100 ppm, and 200 ppm. Treated plants were given a second application of Glypure® 7 days later. Untreated and treated plants were subjected to freeze and heat shock treatments 24 hours later. Cold shock was administered by exposing plants to −3° C. for 2 hours and 20 minutes. Heat treatment was provided by placing plants in an oven for 5 hours at 46.5° C. One week following the temperature treatments, the plants were harvested and the fresh and dry weights were determined."}, "cabbage [5]": {"test_system": "cabbage", "experiment": "Cabbage drought stress: fresh and dry weights", "type": "in vivo", "settings": "drought, water withheld 13 days, 5, 15, 50 ppm", "description": "Market Prize, F1 cabbage seed, lot 88955, as described in example 7, was treated identically as in example 7, except that drought stress was imposed by withholding water 7 days following the second spray and continuing to withhold water for 13 sequential days thereafter. Drought tolerance was assessed by measuring both the fresh and dried weights of the plants."}, "[6]": {"settings": "Cold Stress (−3° C., 2 hours 20 minutes), 25 ppm"}, "[7]": {"settings": "Cold Stress (−3° C., 2 hours 20 minutes), 200 ppm"}, "[8]": {"settings": "Heat Stress (46.5° C., 5 hours), 25 ppm"}, "[9]": {"settings": "Heat Stress (46.5° C., 5 hours), 200 ppm"}}, "note": "Marks after values point to notes of the source that are not given here.", "data": [{"smiles": "O=C(O)CO", "note": "[glycolic acid]", "values": [{"measurement": "growth of Sclerotinia minor (colony radius) compared to controls", "setting": "Sclerotinia minor [1]", "result": "statistically significantly increased the growth"}, {"measurement": "Dry Weight", "setting": "Sclerotinia minor [2]; 1 ppm spray", "result": 38.3, "unit": "g"}, {"measurement": "Fresh Weight", "setting": "Sclerotinia minor [2]; 1 ppm spray", "result": 359, "unit": "g"}, {"measurement": "Disease Severity Rating", "setting": "Sclerotinia minor [2]; 1 ppm spray", "result": 3.6}, {"measurement": "Dry Weight", "setting": "Sclerotinia minor [2]; 5 ppm spray", "result": 39.8, "unit": "g"}, {"measurement": "Fresh Weight", "setting": "Sclerotinia minor [2]; 5 ppm spray", "result": 346, "unit": "g"}, {"measurement": "Disease Severity Rating", "setting": "Sclerotinia minor [2]; 5 ppm spray", "result": 3.7}, {"measurement": "Dry Weight", "setting": "Sclerotinia minor [2]; 10 ppm spray", "result": 40.9, "unit": "g"}, {"measurement": "Fresh Weight", "setting": "Sclerotinia minor [2]; 10 ppm spray", "result": 342, "unit": "g"}, {"measurement": "Disease Severity Rating", "setting": "Sclerotinia minor [2]; 10 ppm spray", "result": 2.8}, {"measurement": "Dry Weight", "setting": "Sclerotinia minor [2]; 25 ppm spray", "result": 39.1, "unit": "g"}, {"measurement": "Fresh Weight", "setting": "Sclerotinia minor [2]; 25 ppm spray", "result": 364, "unit": "g"}, {"measurement": "Disease Severity Rating", "setting": "Sclerotinia minor [2]; 25 ppm spray", "result": 2.2}, {"measurement": "disease severity versus control", "setting": "Sclerotinia minor [2]; 37.5 and 75 ppm, α=0.05", "result": "statistically significant (α=0.05) decrease"}, {"measurement": "fresh weight versus control", "setting": "Sclerotinia minor [2]; 37.5 ppm", "result": "statistically significant increase"}, {"measurement": "Dry Weight", "setting": "Sclerotinia minor [2]; 37.5 ppm spray", "result": 39.0, "unit": "g"}, {"measurement": "Fresh Weight", "setting": "Sclerotinia minor [2]; 37.5 ppm spray", "result": "381* g"}, {"measurement": "Disease Severity Rating", "setting": "Sclerotinia minor [2]; 37.5 ppm spray", "result": "1.7*"}, {"measurement": "dry weight versus control", "setting": "Sclerotinia minor [2]; 75 ppm", "result": "statistically significant increase"}, {"measurement": "Dry Weight", "setting": "Sclerotinia minor [2]; 75 ppm spray", "result": "41.5* g"}, {"measurement": "Fresh Weight", "setting": "Sclerotinia minor [2]; 75 ppm spray", "result": 354, "unit": "g"}, {"measurement": "Disease Severity Rating", "setting": "Sclerotinia minor [2]; 75 ppm spray", "result": "2.0*"}, {"measurement": "Disease Severity Rating", "setting": "Sclerotinia minor [3]; 15 ppm spray", "result": "3.0*"}, {"measurement": "Disease Severity Rating", "setting": "Sclerotinia minor [3]; 60 ppm spray", "result": "3.5*"}, {"measurement": "disease severity versus control lettuce", "setting": "Sclerotinia minor [3]; all glycolic acid treatments (15 and 60 ppm), α=0.05", "result": "statistically significant (α=0.05) decrease"}, {"measurement": "reduction in fresh and dry weights caused by the adverse temperatures, versus untreated plants", "setting": "cabbage [4]; 200 ppm", "result": "statistically significantly lower"}, {"measurement": "Avg. Dry Weights ± SD", "setting": "cabbage [4]; [6]", "result": "3.1 ± 0.1"}, {"measurement": "Avg. Fresh Weights ± SD", "setting": "cabbage [4]; [6]", "result": "28.6 ± 2.7"}, {"measurement": "Avg. Dry Weights ± SD", "setting": "cabbage [4]; [7]", "result": "3.2 ± 0.2"}, {"measurement": "Avg. Fresh Weights ± SD", "setting": "cabbage [4]; [7]", "result": "31.4 ± 1.3"}, {"measurement": "Avg. Dry Weights ± SD", "setting": "cabbage [4]; [8]", "result": "2.5 ± 0.3"}, {"measurement": "Avg. Fresh Weights ± SD", "setting": "cabbage [4]; [8]", "result": "10.2 ± 2.6"}, {"measurement": "Avg. Dry Weights ± SD", "setting": "cabbage [4]; [9]", "result": "3.5 ± 0.1"}, {"measurement": "Avg. Fresh Weights ± SD", "setting": "cabbage [4]; [9]", "result": "15.2 ± 0.6"}, {"measurement": "fresh weight of the cabbage compared to controls", "setting": "cabbage [5]; FIG. 3", "result": "statistically significantly increased"}, {"measurement": "dry weight of the cabbage compared to controls", "setting": "cabbage [5]; FIG. 4", "result": "statistically significantly increased"}]}]}
